Article PMC10576769 (Nature Communications, 2023)
Where “and” joins values, the source holds several entries; their conditions need not be identical. Equal values may be shown once. Read-outs that look alike come from different tables or passages of the source. Where a SMILES comes first, the peptide text is derived from it.

What was measured:
BcPC-PLC [1] = type: biochemical, Bacillus cereus
CpPC-PLC [2] = type: biochemical, Clostridium perfringens
BcPC-PLC [3] = type: biochemical, Bacillus cereus; remark: listed apart in the source
CpPC-PLC [4] = type: biochemical, Clostridium perfringens; remark: listed apart in the source
LmPC-PLC^C143S = type: biochemical, Listeria monocytogenes; conditions: Fig. 4g, as E100
LmPC-PLC^C168S = type: biochemical, Listeria monocytogenes; conditions: Fig. 4g, as E100
LmPC-PLC^C143S+C168S = type: biochemical, Listeria monocytogenes; conditions: Fig. 4g, as E100
LmPC-PLC = LmPC-PLC (Listeria monocytogenes serovar 1/2a, UniProt P33378); assay: biochemical; type: biochemical; conditions: for Enzymatic activity towards 4-NPPC (slope): Lm 500 nM, 0 = no slope could be determined; for Enzymatic activity towards 4-NPPC (slope) / Activity of LmPC-PLC towards 4-NPPC (slope): 4-NPPC 1 mM; for Activity of LmPC-PLC towards 4-NPPC (slope): LmPC-PLC 500 nM, 20 mM MES pH 6.5, 150 mM NaCl, 50 μM ZnSO4
[5] = type: binding; conditions: pH 6.5

C[C@H](NC(=O)[C@@H](N)CC(N)=O)C(=O)N[C@@H](CS)C(=O)N[C@@H](CS)C(=O)N[C@@H](CC(=O)O)C(=O)N[C@@H](CCC(=O)O)C(=O)O [NE-6] (H-NACCDE-OH; N-terminus and C-terminus assumed)
relative activity on 4-NPPC (compared to uninhibited activity), Bc (BcPC-PLC [1]): 0.9308 and 0.8774 and 0.8898 | relative activity on 4-NPPC (compared to uninhibited activity), Cp (CpPC-PLC [2]): 0.8963 and 0.9574 and 0.885 | relative activity on POPC (compared to uninhibited activity), Bc (BcPC-PLC [3]): 1.041 and 0.8984 and 0.9777 | relative activity on POPC (compared to uninhibited activity), Cp (CpPC-PLC [4]): 1.136 and 1.059 and 1.144 | relative activity of LmPC-PLC C143S on 4-NPPC (compared to uninhibited activity) (LmPC-PLC^C143S; replicate 1): 0.8443 | relative activity of LmPC-PLC C143S on 4-NPPC (compared to uninhibited activity) (LmPC-PLC^C143S; replicate 2): 0.9328 | relative activity of LmPC-PLC C143S on 4-NPPC (compared to uninhibited activity) (LmPC-PLC^C143S; replicate 3): 0.9098 | relative activity of LmPC-PLC C168S on 4-NPPC (compared to uninhibited activity) (LmPC-PLC^C168S; replicate 1): 0.4893 | relative activity of LmPC-PLC C168S on 4-NPPC (compared to uninhibited activity) (LmPC-PLC^C168S; replicate 2): 0.5344 | relative activity of LmPC-PLC C168S on 4-NPPC (compared to uninhibited activity) (LmPC-PLC^C168S; replicate 3): 0.4659 | relative activity of LmPC-PLC C143S+ C168S on 4-NPPC (compared to uninhibited activity) (LmPC-PLC^C143S+C168S; replicate 1): 1.106 | relative activity of LmPC-PLC C143S+ C168S on 4-NPPC (compared to uninhibited activity) (LmPC-PLC^C143S+C168S; replicate 2): 1.078 | relative activity of LmPC-PLC C143S+ C168S on 4-NPPC (compared to uninhibited activity) (LmPC-PLC^C143S+C168S; replicate 3): 1.062

c1cnc2c(c1)ccc1cccnc12 [O-phe, O-phenanthroline]
Enzymatic activity towards 4-NPPC (slope) (LmPC-PLC; O-phe 1 mM + ions (50 μM ZnSO4), replicate 1): 0 | Enzymatic activity towards 4-NPPC (slope) (LmPC-PLC; O-phe 1 mM + ions (50 μM ZnSO4), replicate 2): 0 | Enzymatic activity towards 4-NPPC (slope) (LmPC-PLC; O-phe 1 mM + ions (50 μM ZnSO4), replicate 3): 0 | Enzymatic activity towards 4-NPPC (slope) (LmPC-PLC; O-phe 1 mM, no ions added, replicate 1): 0 | Enzymatic activity towards 4-NPPC (slope) (LmPC-PLC; O-phe 1 mM, no ions added, replicate 2): 0 | Enzymatic activity towards 4-NPPC (slope) (LmPC-PLC; O-phe 1 mM, no ions added, replicate 3): 0 | inhibition of LmPC-PLC activity by O-phe (LmPC-PLC; O-phe 1 mM, 50 μM Zn2+ added to the protein, 30 min preincubation, 4-NPPC, Supplementary Fig. 9c): completely inhibited | Activity of LmPC-PLC towards 4-NPPC (slope) (LmPC-PLC; inhibitor 4 uM, replicate 1 of N=3): 0.0003865 abs/min | Activity of LmPC-PLC towards 4-NPPC (slope) (LmPC-PLC; inhibitor 4 uM, replicate 2 of N=3): 0.0003893 abs/min | Activity of LmPC-PLC towards 4-NPPC (slope) (LmPC-PLC; inhibitor 4 uM, replicate 3 of N=3): 0.0004002 abs/min | Activity of LmPC-PLC towards 4-NPPC (slope) (LmPC-PLC; inhibitor 8 uM, replicate 1 of N=3): 0.0003883 abs/min | Activity of LmPC-PLC towards 4-NPPC (slope) (LmPC-PLC; inhibitor 8 uM, replicate 2 of N=3): 0.0003708 abs/min | Activity of LmPC-PLC towards 4-NPPC (slope) (LmPC-PLC; inhibitor 8 uM, replicate 3 of N=3): 0.0003802 abs/min | Activity of LmPC-PLC towards 4-NPPC (slope) (LmPC-PLC; inhibitor 16 uM, replicate 1 of N=3): 0.0003736 abs/min | Activity of LmPC-PLC towards 4-NPPC (slope) (LmPC-PLC; inhibitor 16 uM, replicate 2 of N=3): 0.0003589 abs/min | Activity of LmPC-PLC towards 4-NPPC (slope) (LmPC-PLC; inhibitor 16 uM, replicate 3 of N=3): 0.0003489 abs/min | Activity of LmPC-PLC towards 4-NPPC (slope) (LmPC-PLC; inhibitor 31 uM, replicate 1 of N=3): 0.0003148 abs/min | Activity of LmPC-PLC towards 4-NPPC (slope) (LmPC-PLC; inhibitor 31 uM, replicate 2 of N=3): 0.0003263 abs/min | Activity of LmPC-PLC towards 4-NPPC (slope) (LmPC-PLC; inhibitor 31 uM, replicate 3 of N=3): 0.0003082 abs/min | Activity of LmPC-PLC towards 4-NPPC (slope) (LmPC-PLC; inhibitor 63 uM, replicate 1 of N=3, value 0 = no slope could be determined): 0.0002666 abs/min | Activity of LmPC-PLC towards 4-NPPC (slope) (LmPC-PLC; inhibitor 63 uM, replicate 2 of N=3, value 0 = no slope could be determined): 0.0002954 abs/min | Activity of LmPC-PLC towards 4-NPPC (slope) (LmPC-PLC; inhibitor 63 uM, replicate 3 of N=3, value 0 = no slope could be determined): 0.000224 abs/min | Activity of LmPC-PLC towards 4-NPPC (slope) (LmPC-PLC; inhibitor 125 uM, replicate 1 of N=3, value 0 = no slope could be determined): 8.381e-5 abs/min | Activity of LmPC-PLC towards 4-NPPC (slope) (LmPC-PLC; inhibitor 125 uM, replicate 2 of N=3, value 0 = no slope could be determined): 0.0001203 abs/min | Activity of LmPC-PLC towards 4-NPPC (slope) (LmPC-PLC; inhibitor 125 uM, replicate 3 of N=3, value 0 = no slope could be determined): 8.369e-5 abs/min | Enzymatic activity towards 4-NPPC (slope) (BcPC-PLC [1]): 0 | Enzymatic activity towards 4-NPPC (slope) (CpPC-PLC [2]): 0 | % of LLO in the pellet fraction [5]: 22.84%
